Data: patent US9926319B2, “Pyridyl piperidines” (MERCK PATENT GMBH, priority 2014, dated 2018)

Columns and labels:
Wnt pathway = assay: Cellular assay for Wnt pathway activity (luciferase reporter cell based assay); settings: 24 h, HEK293 luciferase reporter cell line (ER-DSH, TCF dependent promoter), induced with estrogen (1 μM), read-out: 7df3 IC50
[1] = CLint (intrinsic clearance) assay, microsomal incubation; format: in vitro ADME, Human; settings: NADPH, 37° C., up to 30 min; for microsomal CLint at 0.8 μM: human, liver microsomes, pH 7.4, human liver microsomes 0.5 mg/mL protein
Protocol: 2. CLint (Intrinsic Clearance) Assay
A Tecan Genesis workstation (RWS ASY 150/8) was used to perform the microsomal incubations. Analysis was carried out using a Waters ACQUITY UPLC system coupled to an ABSciex API3000 mass spectrometer. Data analysis was performed using Assay Explorer (Symyx).
0.1 M potassium phosphate buffer pH 7.4 containing 1 mM MgCl2
15 mM NADPH in phosphate buffer
5.0 mg protein/mL liver microsomes in phosphate buffer
Each experiment consists of 12 test and 2 reference compounds. The reference compounds are incubated as a cocktail.
Dilution of test compounds was done in 2 steps from a 10 mM DMSO stock solution. First 4 μL stock solution was added to 196 μL of 20% DMSO in potassium phosphate buffer pH 7.4. In a second step 10 μL of the first dilution were added to […] potassium phosphate buffer and 100 μL internal standard solution to a final concentration of 0.8 μM. 100 μL of the final compound dilution were aliquoted into a 96 deep well plate. 12.5 μL liver microsomes were added to each well (0.5 mg/mL final protein concentration) and the samples preincubated for 5 min at 37° C. and 800 rpm agitation.
After the preincubation, 250 μL cold acetonitrile were added to the 0 min samples to prevent a reaction. Following this, 12.5 μL NADPH solution were added to all wells to start the incubation, with the exception of the 0 min and 30 min controls without cofactor, where the NADPH was substituted for phosphate buffer.
The incubations were stopped after 5, 10, 20 and 30 min by adding 250 μL cold acetonitrile to the individual wells.
The quenched samples were then centrifuged at 4000 g for 1 h at 4° C. 100 μL of the supernatant were transferred into 96 well plates for analysis.
The metabolic stability of each compound was determined by measurement of the change in LC-MS/MS peak area over time. Assay Explorer software was used to automatically calculate the slope k of the decline. The intrinsic clearance (CLint) of each compound was then calculated according to the formula: CLint(μL/min/mg protein)=k1000/protein concentration.
CLint is shown for each compound in Table 3 below.

| IC50 (Wnt pathway) [nM] | microsomal CLint at 0.8 μM [1] [µL/min/mg] | Human Clint ([1]; human liver microsomes 0.5 mg/mL protein) [µL/min/mg] | Compound |
| --- | --- | --- | --- |
| 3.4 | 11 |  | Cn1ncc2cc(-c3cncc(Cl)c3N3CCC4(CC3)CC(=O)NC4=O)ccc21 [Example 1, 8-[3-Chloro-5-(1-methyl-1H-indazol-5-yl)-pyridin-4-yl]-2,8-diaza-spiro[4.5]decane-1,3-dione] |
| 46 | 15 |  | Cn1ncc2cc(-c3cncc(Cl)c3N3CCC4(CC3)NC(=O)NC4=O)ccc21 [Example 2, 8-[3-Chloro-5-(1-methyl-1H-indazol-5-yl)-pyridin-4-yl]-1,3,8-triaza-spiro[4.5]decane-2,4-dione] |
| 4.4 | 35 |  | O=C1NCCC12CCN(c1c(Cl)cncc1-c1ccc3oc(=O)[nH]c3c1)CC2 [Example 3, 5-[5-Chloro-4-(1-oxo-2,8-diaza-spiro[4.5]dec-8-yl)-pyridin-3-yl]-3H-benzooxazol-2-one] |
| 10 | 23 |  | Cn1ncc2cc(-c3cncc(Cl)c3N3CCC4(CC3)CNC(=O)O4)ccc21 [Example 4, 8-[3-Chloro-5-(1-methyl-1H-indazol-5-yl)-pyridin-4-yl]-1-oxa-3,8-diaza-spiro[4.5]decan-2-one] |
| 6.2 | 90 |  | CC(C)n1cc(-c2ccc(-c3cncc(Cl)c3N3CCC4(CCNC4=O)CC3)cc2)cn1 [Example 6, 8-{3-Chloro-5-[4-(1-isopropyl-1H-pyrazol-4-yl)-phenyl]-pyridin-4-yl}-2,8-diaza-spiro[4.5]decan-1-one] |
| 9.7 | 16 |  | O=C1NCC2(CCN(c3c(Cl)cncc3-c3ccc4oc(=O)[nH]c4c3)CC2)O1 [Example 8, 8-[3-Chloro-5-(2-oxo-2,3-dihydro-benzooxazol-5-yl)-pyridin-4-yl]-1-oxa-3,8-diaza-spiro[4.5]decan-2-one] |
| 28 | 13 |  | Cn1ncc2ccc(-c3cncc(Cl)c3N3CCC4(CC3)CNC(=O)O4)cc21 [Example 10, 8-[3-Chloro-5-(1-methyl-1H-indazol-6-yl)-pyridin-4-yl]-1-oxa-3,8-diaza-spiro[4.5]decan-2-one] |
| 33 | < 10 |  | CN1C(=O)Cc2cc(-c3cncc(Cl)c3N3CCC4(CC3)CNC(=O)O4)ccc21 [Example 11, 8-[3-Chloro-5-(1-methyl-2-oxo-2,3-dihydro-1H-indol-5-yl)-pyridin-4-yl]-1-oxa-3,8-diaza-spiro[4.5]decan-2-one] |
| 43 | 27 |  | O=C1CCc2ccc(-c3cncc(Cl)c3N3CCC4(CCNC4=O)CC3)cc2N1 [Example 12, 7-[5-Chloro-4-(1-oxo-2,8-diaza-spiro[4.5]dec-8-yl)-pyridin-3-yl]-3,4-dihydro-1H-quinolin-2-one] |
| 18 | < 10 |  | Nc1n[nH]c2cc(-c3cncc(Cl)c3N3CCC4(CC3)CC(=O)NC4=O)ccc12 [Example 14, 8-[3-(3-Amino-1H-indazol-6-yl)-5-chloro-pyridin-4-yl]-2,8-diaza-spiro[4.5]decane-1,3-dione] |
| 17 | < 10 |  | O=C1NCC2(CCN(c3c(Cl)cncc3-c3ccc(-c4cnn(CCO)c4)cc3)CC2)O1 [Example 15, 8-(3-Chloro-5-{4-[1-(2-hydroxy-ethyl)-1H-pyrazol-4-yl]-phenyl}-pyridin-4-yl)-1-oxa-3,8-diaza-spiro[4.5]decan-2-one] |
| 11 |  | 11 | Cn1cc(-c2ccc(-c3cncc(Cl)c3N3CCC4(CC3)NC(=O)CNC4=O)cc2)cn1 [Example 17, 9-{3-Chloro-5-[4-(1-methyl-1H-pyrazol-4-yl)-phenyl]-pyridin-4-yl}-1,4,9-triaza-spiro[5.5]undecane-2,5-dione] |
| 21 | < 10 |  | CC1=NC(=O)C2(CCN(c3c(Cl)cncc3-c3ccc4c(cnn4C)c3)CC2)N1 [Example 19, 8-[3-Chloro-5-(1-methyl-1H-indazol-5-yl)-pyridin-4-yl]-2-methyl-1,3,8-triaza-spiro[4.5]dec-2-en-4-one] |
| 22 | 24 |  | CC1=NC(=O)C2(CCN(c3c(Cl)cncc3-c3ccc(-c4cnn(C)c4)cc3)CC2)N1 [Example 20, 8-{3-Chloro-5-[4-(1-methyl-1H-pyrazol-4-yl)-phenyl]-pyridin-4-yl}-2-methyl-1,3,8-triaza-spiro[4.5]dec-2-en-4-one] |
| 31 | < 10 |  | CN1c2ccc(-c3cncc(Cl)c3N3CCC4(CC3)NC(=O)CNC4=O)cc2CS1(=O)=O [Example 21, 9-[3-Chloro-5-(1-methyl-2,2-dioxo-2,3-dihydro-1H-2l6-benzo[c]isothiazol-5-yl)-pyridin-4-yl]-1,4,9-triaza-spiro[5.5]undecane-2,5-dione] |
| 46 | 27 |  | CNC(=O)c1ccc(-c2cncc(Cl)c2N2CCC3(CCNC3=O)CC2)cc1 [Example 22, 4-[5-Chloro-4-(1-oxo-2,8-diaza-spiro[4.5]dec-8-yl)-pyridin-3-yl]-N-methyl-benzamide] |
| 39 | 49 |  | COC(=O)Nc1n[nH]c2cc(-c3cncc(Cl)c3N3CCC4(CCNC4=O)CC3)ccc12 [Example 23, {6-[5-Chloro-4-(1-oxo-2,8-diaza-spiro[4.5]dec-8-yl)-pyridin-3-yl]-1H-indazol-3-yl}-carbamic acid methyl ester] |
| 7 | 23 |  | Cn1cc(-c2ccc(-c3cncc(Cl)c3N3CCC(F)(C(N)=O)CC3)cc2)cn1 [Example 25, 5′-Chloro-4-fluoro-3′-[4-(1-methyl-1H-pyrazol-4-yl)-phenyl]-3,4,5,6-tetrahydro-2H-[1,4′]bipyridinyl-4-carboxylic acid amide] |
| 20 | 30 |  | CC(C)(C)N1Cc2cc(-c3cncc(Cl)c3N3CCC4(CCNC4=O)CC3)ccc2S1(=O)=O [Example 26, 8-[3-(2-tert-Butyl-1,1-dioxo-2,3-dihydro-1H-1l6-benzo[d]isothiazol-5-yl)-5-chloro-pyridin-4-yl]-2,8-diaza-spiro[4.5]decan-1-one] |
| 2 | 58 |  | Cn1nc(N)c2ccc(-c3cncc(Cl)c3N3CCC4(CC3)CNC(=O)O4)cc21 [Example 27, 8-[3-(3-Amino-1-methyl-1H-indazol-6-yl)-5-chloro-pyridin-4-yl]-1-oxa-3,8-diaza-spiro[4.5]decan-2-one] |
| 1.3 | 60 |  | Cn1nc(N)c2ccc(-c3cncc(Cl)c3N3CCC4(CC3)CC(=O)NC4=O)cc21 [Example 28, 8-[3-(3-Amino-1-methyl-1H-indazol-6-yl)-5-chloro-pyridin-4-yl]-2,8-diaza-spiro[4.5]decane-1,3-dione] |
| 16 | 12 |  | O=C1NCCC12CCN(c1c(Cl)cncc1-c1ccc3c(c1)C(O)CS3(=O)=O)CC2 (stereo not shown) [Example 29, 8-[3-Chloro-5-(3-hydroxy-1,1-dioxo-2,3-dihydro-1H-1l6-benzo[b]thiophen-5-yl)-pyridin-4-yl]-2,8-diaza-spiro[4.5]decan-1-one] |
| 13 | 27 |  | CN1c2ccc(-c3cncc(Cl)c3N3CCC4(CC3)CC(=O)NN4)cc2CS1(=O)=O [Example 30, 8-[3-Chloro-5-(1-methyl-2,2-dioxo-2,3-dihydro-1H-2l6-benzo[c]isothiazol-5-yl)-pyridin-4-yl]-1,2,8-triaza-spiro[4.5]decan-3-one] |
| 2.8 | 51 |  | CN1c2ccc(-c3cncc(Cl)c3N3CCC(F)(C(N)=O)CC3)cc2CS1(=O)=O [Example 31, 5′-Chloro-4-fluoro-3′-(1-methyl-2,2-dioxo-2,3-dihydro-1H-2l6-benzo[c]isothiazol-5-yl)-3,4,5,6-tetrahydro-2H-[1,4′]bipyridinyl-4-carboxylic acid amide] |
| 4.7 | 70 |  | O=C1NCCC12CCN(c1c(Cl)cncc1-c1ccc3c(c1)CS(=O)(=O)C3)CC2 [Example 32, 8-[3-Chloro-5-(2,2-dioxo-2,3-dihydro-1H-2l6-benzo[c]thiophen-5-yl)-pyridin-4-yl]-2,8-diaza-spiro[4.5]decan-1-one] |
| 0.6 | 88 |  | CN1c2ccc(-c3cncc(Cl)c3N3CCC(C#N)(CCO)CC3)cc2CS1(=O)=O [Example 33, 5′-Chloro-4-(2-hydroxy-ethyl)-3′-(1-methyl-2,2-dioxo-2,3-dihydro-1H-2l6-benzo[c]isothiazol-5-yl)-3,4,5,6-tetrahydro-2H-[1,4′]bipyridinyl-4-carbonitrile] |
